Read-outs that look alike come from different tables or passages of the source.
Tests used:
[1] = system: LN229 MGMT+/−, MMR+/− cells; test: Cell cycle analysis; assay type: cell-based, human; conditions: 20 μM
Experimental: FIGS. 6A-6E: Selected cell cycle analysis upon drug treatment. FIG. 6A: Percentage of cells in G1, S, and G2 cell cycle phases after treatment, as in FIGS. 5A-5C, measured using integrated nuclear (Hoechst) staining intensity. Columns, mean; error bars, SD; n=3 independent analyses.
Cell Cycle Analysis. Cell cycle analysis was performed using integrated Hoechst nucleic acid dye fluorescence intensity. Briefly, integrated Hoechst fluorescence intensity was log 2 transformed and histograms from DMSO-treated cells were used to identify the centers of the 2N and 4N DNA peaks. These values were used to normalize the 2N DNA peak to 1 and the 4N DNA peak to 2. Cells were then classified by normalized log 2 DNA content as G1 (0.75-1.25), S (1.25-1.75), or G2 (1.75-2.5) phase cells. The percentage of cells within each phase of the cell cycle was determined for each treatment condition. The three sets of Hoechst-stained cells corresponding to the three separate DNA foci stains were treated as three independent analyses.

LN229 MGMT+/MMR+ cells = test: Short-term cell viability assay, LN229 MGMT+/MMR+; assay type: cell-based; conditions: Homo sapiens, read-out: IC50 against LN229 cell lines, MGMT+ MMR+
Experimental: (§1) LN229 MGMT- and MGMT+ cell lines were a gift from B. Kaina (Johannes Gutenberg University Mainz, Mainz, Germany) and grown in Gibco® Duilbecco's Modified Eagle Medium with 10% fetal bovine serum (DMEM). For each compound tested, the relationship between MGMT status and MMR status and compound activity, in terms of IC50 values ([…]), was determined by the following method. On day 1, LN229 isogenic cells of varying MGMT and MMR status were seeded in 96 well format at a density of 2000 cells/well in 100 μL of DMEM media and allowed to adhere overnight. On day 2, a drug master plate was made with 100×the desired maximal concentration of test compound and serially diluted by 2 until 100×the minimal desired concentration, with one DMSO control. Then daughter plates were created with varied concentrations from 3-times the minimal concentration to 3-times the maximal desired concentration. Afterwards, 50 μL of daughter drug plate was added to 100 μL of the seeded cells for a final concentration of 1×in triplicate. Cells were allowed to grow for 6 days. On day 7, the cells were fixed, and stained with Hoechst nuclear dye and imaged to determine growth inhibition.
(§2) For each compound tested, the relationship between MGMT status and MMR status and compound activity, in terms of IC50 values (in μM), was determined. In addition, for each compound, the therapeutic index (TI) was calculated, according to the equation MGMT TI=IC50 (MGMT+/MMR+) divided by IC50 (MGMT−/MMR+). The T1 indicates the efficacy of a compound in treating the targeted MGMT-cancer cells as compared to potential for the same compound to damage, or have adverse effects against, normal cells which are MGMT+cells, The higher the value of the TI, the safer the compound is. […] MMR RI (resistance index)=IC50 (MGMT−/MMR−) divided by IC50 (MGMT−/MMR+). The higher the value of the RI, the less likely that resistance to the compound will develop.
(§3) Short-term Cell Viability Assay. Cells were seeded in 96-well plates at 1000 or 2000 cells/well and allowed to adhere at 23° C. for 60 min and then incubated overnight at 37° C. Cells were treated with indicated concentrations of compounds in triplicate for 4-6 days prior to fixation with 3.7% paraformaldehyde and nuclear staining with 1 μg/mL Hoechst 33342 dye. Cells were imaged on a Cytation 3 imaging reader (BioTek) and quantified using CellProfiler software. For in vitro short-term growth delay experiments, IC50 values were determined from the nonlinear regression equation, [inhibitor] vs normalized response with variable slope.

[2] = system: four isogenic LN229 glioblastoma cell lines; test: Short-term cell viability assays, statements across the isogenic lines; assay type: cell-based, human; conditions: regardless of MMR status
Experimental: as §1, §2, §3

[3] = system: HCT116 cells complemented with chromosome 3 carrying wildtype MLH1 (+Chr3); test: Short-term viability assay, HCT116 +Chr3 cells +/- O6BG; assay type: cell-based, human; conditions: with or without 10 μM O6BG pre-treatment
Experimental: FIG. 1B: Short-term viability assay curves for KL-50 in DLD1 MSH6-deficient cells pre-treated with 0.01% DMSO control (CTR) or 10 μM O^6BG (+O^6BG) for 1 h prior to KL-50 addition. […] Short-term viability assay curves for (FIG. 1E) KL-50 in HCT116 MLH1−/−cells or (FIG. 1F) HCT116 cells complemented with chromosome 3 carrying wildtype MLH1 (+Chr3) pre-treated with 0.01% DMSO control or 10 μM O^6BG (+O^6BG) for 1 h prior to KL-50 addition. […] For these figures, points, mean; error bars, SD; n>3 technical replicates.
as §3

MGMT+ LN229 cells = test: Clonogenic survival assay, LN229 MGMT+ cells; assay type: cell-based, human
Experimental: In vitro clonogenic survival assays (CSAs) were performed using four isogenic LN229 glioblastoma cell lines.
Clonogenic Cell Survival Assay. Cells of each line were pretreated with the test drug in culture for 48-72 hours at the specified dilutions. The cells were then immediately seeded in six-well plates in triplicate at three-fold dilutions, ranging from 9000 to 37 cells per well. Depending on colony size, these plates were kept in the incubator for 10 to 14 days. After incubation, colonies were washed in phosphate-buffered saline (PBS) and stained with crystal violet. Colonies were counted by hand. Counts were normalized to plating efficiency of the corresponding treatment condition.

| Compound | G2 arrest in MGMT+/MMR+ cells [1] | G2 arrest in MGMT−/MMR− cells [1] | G2 arrest in MGMT−/MMR+ cells ([1]; 24 to 48 h) | IC50 (LN229 MGMT+/MMR+ cells; LN-229, Table III, shRNA None) [µM] | IC50 (LN229 MGMT+/MMR+ cells; LN-229, Table II) [µM] | activity in MGMT+ cells, in words [2] | cytotoxicity in HCT116 MLH1-complemented cells [3] | clonogenic survival, toxicity to MGMT+ cells (MGMT+ LN229 cells; at doses up to at least 200 μM) | IC50 (LN229 MGMT+/MMR+ cells; LN-229, 144 h, Table 1, 6 days growth, Hoechst nuclear count) [µM] | clonogenic survival, activity in MGMT+ cells (MGMT+ LN229 cells; irrespective of MMR status) |
| --- | --- | --- | --- | --- | --- | --- | --- | --- | --- | --- |
| NC(=O)c1ncn2c(=O)n(CCF)nnc12 [KL-50] | moderate G2 arrest | attenuated G2 arrest | increasing G2 arrest | 285 ± 46 | 587 ± 166 | limited activity | induced selective tumor cell killing specifically in the setting of O^6BG-induced MGMT suppression | minimal toxicity |  |  |
| Cn1nnc2c(C(N)=O)ncn2c1=O [TMZ, 4-methyl-5-oxo-2,3,4,6,8-pentazabicyclo[4.3.0]nona-2,7,9-triene-9-carboxamide, reference compound] | moderate G2 arrest | absent |  | 697 ± 60 | 742 ± 468 | essentially inactive | enhanced sensitivity to TMZ, which was further potentiated by MGMT depletion |  | > 100 | negligible activity |

Reference: patent US20240294478A1, “ANTI-CANCER COMPOUNDS AND METHODS OF USE” (YALE UNIVERSITY, priority 2021, published 2024)
